Reference: patent US11339184B2, “Antibacterial compounds, compositions thereof, and methods using same” (priority 2019, dated 2022)
Values after ≈ are worked out from the molar mass of the structure shown. Where two headings read alike, the source gives them in different places.

Experiments:
M. smegmatis = assay: MIC against other mycobacteria: M. smegmatis; format: cell-based; details: Table 3, M. smegmatis
M. tuberculosis H37rv = assay: Antibiotic assay against M. tuberculosis (MIC / IC90); format: cell-based, Mycobacterium tuberculosis; details: for IC90: H37Rv
M. marinum = assay: MIC against other mycobacteria: M. marinum; format: cell-based; details: Table 3, M. marinum
M. abscessus = assay: MIC against other mycobacteria: M. abscessus; format: cell-based; details: Table 3, M. abscessus
M. avium = assay: MIC against other mycobacteria: M. avium; format: cell-based; details: Table 3, M. avium
[1] = test system: Gram-positive bacteria, including Staphylococcus aureus, Staphylococcus epidermidis, Listeria monocytogenes and M. tuberculosis; format: cell-based
[2] = Table 4, Formula III derivatives, M. tuberculosis H37rv

In the case of CO[C@H]1/C=C/O[C@@]2(C)Oc3c(C)c(O)c4c(O)c(c(/C=N/N5CCN(C)CC5)c(O)c4c3C2=O)NC(=O)/C(C)=C\C=C\[C@H](C)[C@H](O)[C@@H](C)[C@@H](O)[C@@H](C)[C@H](OC(C)=O)[C@@H]1C [Rif, rifampicin], the MIC (M. smegmatis) is reported as greater than 25 µg/mL, the MIC (M. tuberculosis H37rv) is reported as 0.05 µg/mL (≈ 0.0608 µM) and the MIC (M. tuberculosis H37rv; Table 3, M. tuberculosis H37rv, Trial 2) is reported as 0.31 µg/mL (≈ 0.377 µM). For the same compound, the MIC (M. tuberculosis H37rv; Table 3, M. tuberculosis H37rv, Trial 3) was 0.31 µg/mL (≈ 0.377 µM), the MIC (M. tuberculosis H37rv; Table 3, M. tuberculosis H37rv, Trial 4) was 0.31 µg/mL (≈ 0.377 µM) and the MIC (M. tuberculosis H37rv; [2]) was less than 0.02 µg/mL. It also gave an MIC (M. marinum) greater than 25 µg/mL, an MIC (M. abscessus) greater than 25 µg/mL and an MIC (M. avium) of less than 0.195 µg/mL.

CC(=O)OC1C(C)C(OC2CC3OCOC3C(C)O2)/C=C/OC2(C)OC3=C(C)C(=O)c4c(O)c(cc5c4C3=C2OCO5)NC(=O)/C(C)=C\C=C\C(C(C)OC(=O)C(C)(C)CC(=O)O)C(O)C(C)C(O)C1C (centres unmarked) [kanglemycin V2] was tested, and the IC90 (M. tuberculosis H37rv) was 1560 nM, the MIC (M. tuberculosis H37rv; [2]) was 0.08 µg/mL (≈ 0.0803 µM) and the “activity as antibiotics against Gram-positive bacteria” value [1] was “active”.

With CC(=O)OC1C(C)C(OC2CC3OCOC3C(C)O2)/C=C/OC2(C)CC(O)c3c(c(C)c(O)c4c3C(=O)C=C(NC(=O)/C(C)=C\C=C\C(C(C)OC(=O)C(C)(C)CC(=O)O)C(O)C(C)C(O)C1C)C4=O)O2 (centres unmarked) [kanglemycin V1] the IC90 (M. tuberculosis H37rv) was 3120 nM and the “activity as antibiotics against Gram-positive bacteria” value [1] was “active”.
